# Experiments:
# bedstraw = experiment: Test B pre/postemergence bedstraw; format: in vivo, Galium aparine; conditions: Postemergence
# Procedure, shortened: (§1)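 Herbicidal effect was estimated by eye on a ten-point control scale after plants spent twelve to sixteen days in a greenhouse following soil or foliar treatment. Foliar sprays targeted plants at one to four leaves; all doses were formulated in a non-phytotoxic solvent with surfactant.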
# blackgrass = experiment: Test B pre/postemergence blackgrass; format: in vivo, Alopecurus myosuroides
# Procedure, shortened: as §1
# surinam grass = experiment: Test B pre/postemergence surinam grass; format: in vivo, Brachiaria decumbens
# Procedure, shortened: as §1
# cocklebur = experiment: Test B pre/postemergence cocklebur; format: in vivo, Xanthium strumarium
# Procedure, shortened: as §1
# corn = experiment: Test B pre/postemergence corn; format: in vivo, Zea mays
# Procedure, shortened: as §1
# crabgrass = experiment: Test B pre/postemergence crabgrass; format: in vivo, Digitaria sanguinalis
# Procedure, shortened: as §1
# rape = experiment: Test B pre/postemergence rape; format: in vivo, Brassica napus
# Procedure, shortened: as §1
# soybean = experiment: Test B pre/postemergence soybean; format: in vivo, Glycine max
# Procedure, shortened: as §1
# sugar beet = experiment: Test B pre/postemergence sugar beet; format: in vivo, Beta vulgaris
# Procedure, shortened: as §1
# velvetleaf = experiment: Test B pre/postemergence velvetleaf; format: in vivo, Abutilon theophrasti
# Procedure, shortened: as §1
# wheat = experiment: Test B pre/postemergence wheat; format: in vivo, Triticum aestivum
# Procedure, shortened: as §1
# wild oat = experiment: Test B pre/postemergence wild oat; format: in vivo, Avena fatua
# Procedure, shortened: as §1
# purple nutsedge = experiment: Test B pre/postemergence purple nutsedge; format: in vivo, Cyperus rotundus
# Procedure, shortened: as §1
# rice = experiment: Test B flood test rice; format: in vivo, Oryza sativa
# Procedure, shortened: (§2)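 Flood test on plants grown to the 2-leaf stage; treated plants kept in greenhouse twelve to sixteen days, then visually rated against controls on a 0 (no effect) to 10 (complete control) scale.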
# smallflower flatsedge = experiment: Test B flood test smallflower flatsedge; format: in vivo, Cyperus difformis
# Procedure, shortened: as §2
# duck salad = experiment: Test B flood test duck salad; format: in vivo, Heteranthera limosa
# Procedure, shortened: as §2
# bamyardgrass = experiment: Test B flood test barnyardgrass; format: in vivo, Echinochloa crus-galli
# Procedure, shortened: as §2
# [1] = Postemergence, Rate 62 g/ha, scale 0 to 10, 0 is no effect, 10 is complete control
# [2] = Postemergence, Rate 125 g/ha, scale of 0 to 10 where 0 is no effect and 10 is complete control
# [3] = Postemergence, Rate 250 g/ha, scale of 0 to 10, 0 is no effect, 10 is complete control
# [4] = Preemergence, Rate 62 g/ha, scale of 0 to 10 where 0 is no effect and 10 is complete control
# [5] = Preemergence, Rate 125 g/ha, scale of 0 to 10 where 0 is no effect and 10 is complete control
# [6] = Preemergence, Rate 250 g/ha, scale 0 to 10 (0 no effect, 10 complete control)
# [7] = Preemergence, Rate 500 g/ha, scale of 0 to 10 where 0 is no effect and 10 is complete control
# [8] = Rate 500 g/ha, Postemergence, scale 0 to 10, 0 is no effect, 10 is complete control
# [9] = Rate 62 g/ha, flood test species, Pre-emergence, visual evaluation after twelve to sixteen days
# [10] = Rate 125 g/ha, under heading Pre-emergence, flood test species, visual evaluation after twelve to sixteen days
# [11] = Rate 250 g/ha, Pre-emergence (flood test species), scale 0 to 10, 0 is no effect, 10 is complete control
# [12] = Rate 500 g/ha, Pre-emergence section of Table B, 0 to 10 scale (0 no effect, 10 complete control)
structure (smiles),measurement,setting,value
CC(C)N(C(=O)n1oc(=O)n(CCC(=O)N(C)C)c1=O)c1ccccc1 [Compound 671],Bedstraw plant response rating,"bedstraw; Rate 125 g/ha, scale of 0 to 10 where 0 is no effect and 10 is complete control",0
same,Bedstraw plant response rating,"bedstraw; Rate 250 g/ha, scale of 0 to 10, 0 is no effect, 10 is complete control",0
same,Bedstraw plant response rating,"bedstraw; Rate 500 g/ha, scale 0 to 10, 0 is no effect, 10 is complete control",0
same,"Plant response rating, Blackgrass",blackgrass; [1],0
same,Blackgrass plant response rating,blackgrass; [2],6
same,Blackgrass plant response rating,blackgrass; [3],8
same,Blackgrass plant response rating,blackgrass; [4],5
same,"Plant response rating, Blackgrass",blackgrass; [5],7
same,"Plant response rating, Blackgrass",blackgrass; [6],8
same,"Plant response rating, Blackgrass",blackgrass; [7],10
same,Blackgrass plant response rating,blackgrass; [8],8
same,"Plant response rating, B. signalgrass",surinam grass; [1],0
same,"Plant response rating, B. signalgrass",surinam grass; [2],1
same,B. signalgrass plant response rating,surinam grass; [3],6
same,B. signalgrass plant response rating,surinam grass; [4],4
same,"Plant response rating, B. signalgrass",surinam grass; [5],6
same,"Plant response rating, B. signalgrass",surinam grass; [6],7
same,"Plant response rating, B. signalgrass",surinam grass; [7],9
same,B. signalgrass plant response rating,surinam grass; [8],8
same,"Plant response rating, Cocklebur",cocklebur; [1],0
same,Cocklebur plant response rating,cocklebur; [2],0
same,Cocklebur plant response rating,cocklebur; [3],0
same,Cocklebur plant response rating,cocklebur; [4],0
same,"Plant response rating, Cocklebur",cocklebur; [5],0
same,"Plant response rating, Cocklebur",cocklebur; [6],0
same,"Plant response rating, Cocklebur",cocklebur; [7],1
same,Cocklebur plant response rating,cocklebur; [8],1
same,"Plant response rating, Corn",corn; [1],0
same,Corn plant response rating,corn; [2],0
same,Corn plant response rating,corn; [3],0
same,Corn plant response rating,corn; [4],0
same,"Plant response rating, Corn",corn; [5],0
same,"Plant response rating, Corn",corn; [6],3
same,"Plant response rating, Corn",corn; [7],9
same,Corn plant response rating,corn; [8],5
same,"Plant response rating, Crabgrass",crabgrass; [1],1
same,Crabgrass plant response rating,crabgrass; [2],1
same,Crabgrass plant response rating,crabgrass; [3],8
same,Crabgrass plant response rating,crabgrass; [4],4
same,"Plant response rating, Crabgrass",crabgrass; [5],8
same,"Plant response rating, Crabgrass",crabgrass; [6],8
same,"Plant response rating, Crabgrass",crabgrass; [7],9
same,Crabgrass plant response rating,crabgrass; [8],9
same,"Plant response rating, Rape",rape; [1],0
same,Rape plant response rating,rape; [2],0
same,Rape plant response rating,rape; [4],0
same,"Plant response rating, Rape",rape; [5],0
same,"Plant response rating, Rape",rape; [6],0
same,"Plant response rating, Rape",rape; [7],8
same,Rape plant response rating,rape; [8],2
same,"Plant response rating, Soybean",soybean; [1],2
same,Soybean plant response rating,soybean; [2],2
same,Soybean plant response rating,soybean; [4],0
same,"Plant response rating, Soybean",soybean; [5],0
same,"Plant response rating, Soybean",soybean; [6],0
same,"Plant response rating, Soybean",soybean; [7],3
same,Soybean plant response rating,soybean; [8],4
same,"Plant response rating, Sugarbeets",sugar beet; [1],0
same,Sugarbeets plant response rating,sugar beet; [2],0
same,Sugarbeets plant response rating,sugar beet; [4],1
same,"Plant response rating, Sugarbeets",sugar beet; [5],9
same,"Plant response rating, Sugarbeets",sugar beet; [6],9
same,"Plant response rating, Sugarbeets",sugar beet; [7],9
same,Sugarbeets plant response rating,sugar beet; [8],3
same,"Plant response rating, Velvetleaf",velvetleaf; [1],0
same,Velvetleaf plant response rating,velvetleaf; [2],0
same,Velvetleaf plant response rating,velvetleaf; [4],2
same,"Plant response rating, Velvetleaf",velvetleaf; [5],7
same,"Plant response rating, Velvetleaf",velvetleaf; [6],7
same,"Plant response rating, Velvetleaf",velvetleaf; [7],9
same,Velvetleaf plant response rating,velvetleaf; [8],3
same,"Plant response rating, Wheat",wheat; [1],0
same,Wheat plant response rating,wheat; [2],0
same,Wheat plant response rating,wheat; [4],0
same,"Plant response rating, Wheat",wheat; [5],0
same,"Plant response rating, Wheat",wheat; [6],3
same,"Plant response rating, Wheat",wheat; [7],8
same,Wheat plant response rating,wheat; [8],6
same,"Plant response rating, Wild oats",wild oat; [1],0
same,Wild oats plant response rating,wild oat; [2],0
same,Wild oats plant response rating,wild oat; [4],0
same,"Plant response rating, Wild oats",wild oat; [5],0
same,"Plant response rating, Wild oats",wild oat; [6],7
same,"Plant response rating, Wild oats",wild oat; [7],5
same,Wild oats plant response rating,wild oat; [8],0
same,"Plant response rating, Nutsedge",purple nutsedge; [1],0
same,Nutsedge plant response rating,purple nutsedge; [2],0
same,Nutsedge plant response rating,purple nutsedge; [4],0
same,"Plant response rating, Nutsedge",purple nutsedge; [5],2
same,"Plant response rating, Nutsedge",purple nutsedge; [6],6
same,"Plant response rating, Nutsedge",purple nutsedge; [7],6
same,Nutsedge plant response rating,purple nutsedge; [8],0
same,"Plant response rating, Rice (0 to 10 scale, 0 is no effect, 10 is complete control)",rice; [9],0
same,"Rice plant response rating (0 to 10 scale, 0 is no effect, 10 is complete control)",rice; [10],0
same,Rice plant response rating,rice; [11],0
same,Rice plant response rating,rice; [12],0
same,"Plant response rating, S. Flatsedge (0 to 10 scale, 0 is no effect, 10 is complete control)",smallflower flatsedge; [9],0
same,"S. Flatsedge plant response rating (0 to 10 scale, 0 is no effect, 10 is complete control)",smallflower flatsedge; [10],0
same,S. Flatsedge plant response rating,smallflower flatsedge; [11],0
same,S. Flatsedge plant response rating,smallflower flatsedge; [12],0
same,"Plant response rating, Ducksalad (0 to 10 scale, 0 is no effect, 10 is complete control)",duck salad; [9],0
same,"Ducksalad plant response rating (0 to 10 scale, 0 is no effect, 10 is complete control)",duck salad; [10],0
same,Ducksalad plant response rating,duck salad; [11],0
same,Ducksalad plant response rating,duck salad; [12],0
same,"Plant response rating, Barnyardgrass (0 to 10 scale, 0 is no effect, 10 is complete control)",bamyardgrass; [9],0
same,"Barnyardgrass plant response rating (0 to 10 scale, 0 is no effect, 10 is complete control)",bamyardgrass; [10],0
same,Barnyardgrass plant response rating,bamyardgrass; [11],0
same,Barnyardgrass plant response rating,bamyardgrass; [12],0

# From patent US6737383B1, “Herbicidal oxadiazolidines” (priority 1999, dated 2004)
